# Source: patent US20230159453A1 (COCRYSTAL PHARMA, INC., priority 2020, published 2023)
# Target: SARS2 protease (Severe acute respiratory syndrome coronavirus 2, UniProt P0DTD1)
# Assay: SARS-CoV-2 protease inhibition assay (SARS2 FRET protease assay)
# Type: biochemical
# Settings: SARS-CoV-2 protease 25 nM, FRET, peptide substrate 1.3 μM, 30 minutes at 30° C., compounds 20 μM to 1.0 nM; read-out: IC50
row,SMILES,IC50
1,"CC(C)C[C@H](NC(=O)OC(Cc1ccccc1)C(C)C)C(=O)N[C@H](C=O)C[C@@H]1CCNC1=O (stereo partly drawn) [Compound C230, 3-Methyl-1-phenylbutan-2-yl ((S)-4-methyl-1-oxo-1-(((S)-1-oxo-3-((S)-2-oxopyrrolidin-3-yl)propan-2-yl)amino)pentan-2-yl)carbamate]",70 nM
2,"CC(C)(C)C(OC(=O)N[C@@H](CC1CCCCC1)C(=O)N[C@@H](C[C@@H]1CCNC1=O)C(=O)C(N)=O)c1ccccc1 (stereo partly drawn) [Compound C231, 2,2-Dimethyl-1-phenylpropyl ((S)-1-(((S)-4-amino-3,4-dioxo-1-((S)-2-oxopyrrolidin-3-yl)butan-2-yl)amino)-3-cyclohexyl-1-oxopropan-2-yl) carbamate]",1800 nM
3,"CCOC(=O)/C=C/[C@H](C[C@@H]1CCNC1=O)NC(=O)[C@H](CC(C)C)NC(=O)OC(Cc1ccccc1)c1ccccc1 (stereo partly drawn) [Compound C232, Ethyl (4S, E)-4-((2S)-2-(((1,2-diphenylethoxy)carbonyl)amino)-4-methylpentanamido)-5-((S)-2-oxopyrrolidin-3-yl) pent-2-enoate]",15100 nM
4,"COc1cccc2[nH]c(C(=O)N[C@@H](CC(C)C)C(=O)NC(CC3CC4(CCCCC4)NC3=O)C(=O)CO)cc12 (stereo partly drawn) [Compound C233, N-((2S)-1-((4-hydroxy-3-oxo-1-(2-oxo-1-azaspiro[4.5]decan-3-yl)butan-2-yl)amino)-4-methyl-1-oxopentan-2-yl)-4-methoxy-1H-indole-2-carboxamide]",20 nM
5,"COc1cccc2[nH]c(C(=O)N[C@@H](CC(C)C)C(=O)NC(CC3CC4(CCCCC4)NC3=O)C(=O)C(=O)NC3CC3)cc12 (stereo partly drawn) [Compound C234, N-((2S)-1-((4-(cyclopropylamino)-3,4-dioxo-1-(2-oxo-1-azaspiro[4.5]decan-3-yl)butan-2-yl)amino)-4-methyl-1-oxopentan-2-yl)-4-methoxy-1H-indole-2-carboxamide]",0.8 nM
6,"CC(C)(c1cccc(Cl)c1)C(OC(=O)N[C@@H](CC1CCCCC1)C(=O)N[C@@H](C[C@@H]1CCNC1=O)C(=O)C(=O)O)c1ccc2ccccc2c1 (stereo partly drawn) [Compound C235, (3S)-3-((2S)-2-(((2-(3-Chlorophenyl)-2-methyl-1-(naphthalen-2-yl)propoxy)carbonyl)amino)-3-cyclohexylpropanamido)-2-oxo-4-((S)-2-oxopyrrolidin-3-yl)butanoic acid]",71 nM
7,"CC(C)C[C@H](NC(=O)OC(c1ccccc1)C(C)(C)c1cccc(Cl)c1)C(=O)N[C@@H](C[C@@H]1CCNC1=O)C(=O)CO (stereo partly drawn) [Compound C236, 2-(3-Chlorophenyl)-2-methyl-1-phenylpropyl ((S)-1-(((S)-4-hydroxy-3-oxo-1-((S)-2-oxopyrrolidin-3-yl)butan-2-yl)amino)-4-methyl-1-oxopentan-2-yl)carbamate]",271 nM
8,"CC(C)C[C@H](NC(=O)OC(Cc1ccccc1)C1CCCCC1)C(=O)N[C@H](C=O)C[C@@H]1CCNC1=O (stereo partly drawn) [Compound C237, 1-Cyclohexyl-2-phenylethyl ((S)-4-methyl-1-oxo-1-(((S)-1-oxo-3-((S)-2-oxopyrrolidin-3-yl)propan-2-yl)amino)pentan-2-yl)carbamate]",3 nM
9,"CC(C)C[C@H](NC(=O)OC(c1ccc(F)cc1)C(C)(C)c1cccc(Cl)c1)C(=O)N[C@H](C=O)C[C@@H]1CCNC1=O (stereo partly drawn) [Compound C238, 2-(3-chlorophenyl)-1-(4-fluorophenyl)-2-methylpropyl ((S)-4-methyl-1-oxo-1-(((S)-1-oxo-3-((S)-2-oxopyrrolidin-3-yl)propan-2-yl)amino)pentan-2-yl)carbamate]",0.1 nM
10,"CC(C)C[C@H](NC(=O)OC1CCCC1Cc1cccc(Cl)c1)C(=O)N[C@@H](C[C@@H]1CCNC1=O)C(=O)NS(=O)(=O)C1CC1 (stereo partly drawn) [Compound C239, 2-(3-Chlorobenzyl) cyclopentyl ((S)-1-(((S)-1-(cyclopropanesulfonamido)-1-oxo-3-((S)-2-oxopyrrolidin-3-yl)propan-2-yl)amino)-4-methyl-1-oxopentan-2-yl) carbamate]",> 20000 nM
11,"CC(C)C[C@H](NC(=O)OC1CCCC1Cc1ccccc1)C(=O)N[C@@H](C[C@@H]1CCNC1=O)C(=O)C(N)=O (stereo partly drawn) [Compound C240, 2-Benzylcyclopentyl ((S)-1-(((S)-4-amino-3,4-dioxo-1-((S)-2-oxopyrrolidin-3-yl)butan-2-yl)amino)-4-methyl-1-oxopentan-2-yl)carbamate]",230 nM
12,"O=C(N[C@@H](CC1CCCCC1)C(=O)N[C@@H](C[C@@H]1CCNC1=O)C(=O)C(=O)NC1CC1)OC(Cc1cccc(Cl)c1)c1cccc(Cl)c1 (stereo partly drawn) [Compound C241, 1,2-Bis(3-chlorophenyl)ethyl ((S)-3-cyclohexyl-1-(((S)-4-(cyclopropylamino)-3,4-dioxo-1-((S)-2-oxopyrrolidin-3-yl)butan-2-yl)amino)-1-oxopropan-2-yl)carbamate]",2350 nM
13,"CC(C)C[C@H](NC(=O)OC(Cc1cccc(Cl)c1)c1cccc(Cl)c1)C(=O)N[C@@H](C[C@@H]1CCNC1=O)C(=O)C(=O)NC1CC1 (stereo partly drawn) [Compound C242, 1,2-Bis(3-chlorophenyl)ethyl ((S)-1-(((S)-4-(cyclopropylamino)-3,4-dioxo-1-((S)-2-oxopyrrolidin-3-yl)butan-2-yl)amino)-4-methyl-1-oxopentan-2-yl)carbamate]",74 nM
14,"CC(C)C[C@H](NC(=O)OC(Cc1cccc(Cl)c1)c1ccccc1)C(=O)N[C@@H](C[C@@H]1CCNC1=O)C(=O)C(=O)N1CCCCC1 (stereo partly drawn) [Compound C243, 2-(3-Chlorophenyl)-1-phenylethyl ((S)-1-(((S)-3,4-dioxo-1-((S)-2-oxopyrrolidin-3-yl)-4-(piperidin-1-yl)butan-2-yl)amino)-4-methyl-1-oxopentan-2-yl) carbamate]",> 20000 nM
15,"CC1(C)CC(CC(NC(=O)[C@H](CC2CCCCC2)NC(=O)OCc2cccc(Cl)c2)C(=O)C(=O)NC2CC2)C(=O)N1 (stereo partly drawn) [Compound C244, 3-Chlorobenzyl ((2S)-3-cyclohexyl-1-((4-(cyclopropylamino)-1-(5,5-dimethyl-2-oxopyrrolidin-3-yl)-3,4-dioxobutan-2-yl)amino)-1-oxopropan-2-yl) carbamate]",1730 nM
16,CC1(C)CC(CC(NC(=O)[C@H](CC2CCCCC2)NC(=O)OC(c2ccc(Cl)cc2)C(C)(C)c2cccc(Cl)c2)C(=O)C(=O)NC2CC2)C(=O)N1 (stereo partly drawn) [Compound C245],1980 nM
17,CC(C)C[C@H](NC(=O)OC(c1ccc(Cl)cc1)C(C)(C)c1cccc(Cl)c1)C(=O)N[C@H](C=O)C[C@@H]1CCNC1=O (stereo partly drawn) [Compound C246],520 nM
18,CC(C)C[C@H](NC(=O)OC(c1ccc(F)cc1)C(C)(C)c1cccc(Cl)c1)C(=O)N[C@@H](C[C@@H]1CCNC1=O)C(=O)C(=O)NC1CC1 (stereo partly drawn) [Compound C247],80 nM

row,SMILES,IC50
1,CC(C)C[C@H](NC(=O)OC(c1ccccc1)C(C)(C)c1cccc(Cl)c1)C(=O)N[C@@H](C[C@@H]1CCNC1=O)C(=O)C(=O)N1CCN(C)CC1 (stereo partly drawn) [Compound C248],6930 nM
2,CC(C)C[C@H](NC(=O)OC(Cc1cccc(Cl)c1)c1ccccc1)C(=O)N[C@@H](C[C@@H]1CCNC1=O)C(=O)NS(=O)(=O)C1CC1 (stereo partly drawn) [Compound C249],> 20000 nM
3,"O=C[C@H](C[C@@H]1CCNC1=O)NC(=O)[C@H](CC1CCCCC1)NC(=O)OC(c1cccc(Cl)c1)C1(c2cccc(Cl)c2)CC1 (stereo partly drawn) [Compound C250, (3-Chlorophenyl)(1-(3-chlorophenyl)cyclopropyl)methyl ((S)-3-cyclohexyl-1-oxo-1-(((S)-1-oxo-3-((S)-2-oxopyrrolidin-3-yl)propan-2-yl)amino)propan-2-yl)carbamate]",10 nM
4,CC(C)C[C@H](NC(=O)OC(c1ccccc1)C(F)(F)c1cccc(Cl)c1)C(=O)N[C@@H](C[C@@H]1CCNC1=O)C(=O)C(N)=O (stereo partly drawn) [Compound C251],0.008 nM
5,CC(C)(c1cccc(Cl)c1)C(OC(=O)N[C@@H](Cc1ccccc1)C(=O)N[C@@H](C[C@@H]1CCNC1=O)C(=O)C(N)=O)c1ccccc1 (stereo partly drawn) [Compound C254],4270 nM
6,NC(=O)C(=O)[C@H](C[C@@H]1CCNC1=O)NC(=O)[C@H](Cc1ccccc1)NC(=O)OC(CCc1ccccc1)c1ccccc1 (stereo partly drawn) [Compound C255],70 nM
7,CC(C)C[C@H](NC(=O)OCCCc1ccccc1)C(=O)N[C@@H](C[C@@H]1CCNC1=O)C(=O)C(N)=O [Compound C256],320 nM
8,CC(C)(c1cccc(Cl)c1)C(OC(=O)N[C@@H](Cc1ccccc1)C(=O)N[C@H](C=O)C[C@@H]1CCNC1=O)c1ccccc1 (stereo partly drawn) [Compound C257],> 20000 nM
9,CC(C)C[C@H](NC(=O)OC(c1ccccc1)C(F)(F)c1cccc(Cl)c1)C(=O)N[C@@H](C[C@@H]1CCNC1=O)C(=O)C(=O)NC1CC1 (stereo partly drawn) [Compound C258],90 nM
10,CC(C)C[C@H](NC(=O)OC(CCc1ccccc1)c1ccccc1)C(=O)N[C@H](C=O)C[C@@H]1CCNC1=O (stereo partly drawn) [Compound C259],50 nM
11,CC(C)C[C@H](NC(=O)OC(c1ccccc1)C(C)(C)c1cccc(Cl)c1)C(=O)N[C@@H](C[C@@H]1CCNC1=O)C(=O)C(=O)NCCN(C)C (stereo partly drawn) [Compound C260],1140 nM
12,CC(C)C[C@H](NC(=O)OC(c1ccccc1)C(C)(C)c1cccc(Cl)c1)C(=O)N[C@@H](C[C@@H]1CCNC1=O)C(=O)C(=O)N1CCN(C(=O)OC(C)(C)C)CC1 (stereo partly drawn) [Compound C261],17000 nM
13,O=C[C@H](C[C@@H]1CCNC1=O)NC(=O)[C@H](CC1CCCCC1)NC(=O)O[C@@H]1CCC[C@H]1Cc1cccc(Cl)c1 [Compound C262],20 nM
14,O=C(N[C@@H](CC1CCCCC1)C(=O)N[C@@H](C[C@@H]1CCNC1=O)C(=O)C(=O)NC1CC1)O[C@H]1CCC[C@@H]1Cc1cccc(Cl)c1 [Compound C264],680 nM
15,O=C(N[C@@H](CC1CCCCC1)C(=O)N[C@@H](C[C@@H]1CCNC1=O)C(=O)C(=O)NC1CC1)O[C@@H]1CCC[C@@H]1Cc1cccc(Cl)c1 [Compound C265],840 nM
16,CC(C)C[C@H](NC(=O)OC(c1cccc(Cl)c1)C(F)(F)c1cccc(Cl)c1)C(=O)N[C@H](C=O)C[C@@H]1CCNC1=O (stereo partly drawn) [Compound C266],20 nM
17,CCCCC[C@H](NC(=O)OC(c1ccccc1)C(C)(C)c1cccc(Cl)c1)C(=O)N[C@H](C=O)C[C@@H]1CCNC1=O (stereo partly drawn) [Compound C267],100 nM
18,CC(C)C[C@H](NC(=O)O[C@@H](c1cccc(F)c1)C(C)(C)c1cccc(Cl)c1)C(=O)N[C@H](C=O)C[C@@H]1CCNC1=O [Compound C268],20 nM
